Measured values reported in patent publication US12391682B2, “Isoquinoline derivatives and their use for the treatment of parasitic infections” (Elanco Animal Health GmbH, priority 2019, dated 2025).

What was measured:
[1] = tested on: Adult Nippostrongylus brasiliensis; experiment: In Vitro Assay 3: Nippostrongylus brasiliensis (NIPOBR), acetylcholine esterase readout; settings: at 10 μg/ml (10 ppm), adult worms, read-out: activity (reduction of AChE compared to negative control)
Description: In Vitro Assay 3: Nippostrongylus brasiliensis (NIPOBR)
Adult Nippostrongylus brasiliensis were washed with saline buffer containing 100 U/ml penicillin, 0.1 mg/ml streptomycin and 2.5 μg/ml amphotericin B. Test compounds were dissolved in DMSO and worms were incubated in medium in a final concentration of 10 μg/ml (10 ppm). An aliquot of the medium was used to determine the acetylcholine esterase activity in comparison to a negative control. The principle of measuring acetylcholine esterase as readout for anthelmintic activity was described in Rapson et al (1986) and Rapson et al (1987).

[2] = tested on: Dirofilaria immitis; experiment: In Vitro Assay 5: Dirofilaria immitis (DIROIM L4), motility; settings: 72 h, read-out: EC50 (reduction of motility in comparison to the negative control)
[3] = tested on: Dirofilaria immitis microfilariae; experiment: In Vitro Assay 4: Dirofilaria immitis microfilariae (DIROIM L1), motility; settings: 72 h, read-out: EC50 (reduction of motility in comparison to the negative control)
[4] = target: D. immitis Slo-1 (Dirofilaria immitis, UniProt I0DFK5); experiment: In Vitro Assay 2: D. immitis Slo-1, membrane potential measurement in stable recombinant CHO cell line; format: cell-based
[5] = target: C. elegans Slo-1a (Caenorhabditis elegans, UniProt Q95V25)
Sequence of C. elegans Slo-1a (Q95V25 whole entry): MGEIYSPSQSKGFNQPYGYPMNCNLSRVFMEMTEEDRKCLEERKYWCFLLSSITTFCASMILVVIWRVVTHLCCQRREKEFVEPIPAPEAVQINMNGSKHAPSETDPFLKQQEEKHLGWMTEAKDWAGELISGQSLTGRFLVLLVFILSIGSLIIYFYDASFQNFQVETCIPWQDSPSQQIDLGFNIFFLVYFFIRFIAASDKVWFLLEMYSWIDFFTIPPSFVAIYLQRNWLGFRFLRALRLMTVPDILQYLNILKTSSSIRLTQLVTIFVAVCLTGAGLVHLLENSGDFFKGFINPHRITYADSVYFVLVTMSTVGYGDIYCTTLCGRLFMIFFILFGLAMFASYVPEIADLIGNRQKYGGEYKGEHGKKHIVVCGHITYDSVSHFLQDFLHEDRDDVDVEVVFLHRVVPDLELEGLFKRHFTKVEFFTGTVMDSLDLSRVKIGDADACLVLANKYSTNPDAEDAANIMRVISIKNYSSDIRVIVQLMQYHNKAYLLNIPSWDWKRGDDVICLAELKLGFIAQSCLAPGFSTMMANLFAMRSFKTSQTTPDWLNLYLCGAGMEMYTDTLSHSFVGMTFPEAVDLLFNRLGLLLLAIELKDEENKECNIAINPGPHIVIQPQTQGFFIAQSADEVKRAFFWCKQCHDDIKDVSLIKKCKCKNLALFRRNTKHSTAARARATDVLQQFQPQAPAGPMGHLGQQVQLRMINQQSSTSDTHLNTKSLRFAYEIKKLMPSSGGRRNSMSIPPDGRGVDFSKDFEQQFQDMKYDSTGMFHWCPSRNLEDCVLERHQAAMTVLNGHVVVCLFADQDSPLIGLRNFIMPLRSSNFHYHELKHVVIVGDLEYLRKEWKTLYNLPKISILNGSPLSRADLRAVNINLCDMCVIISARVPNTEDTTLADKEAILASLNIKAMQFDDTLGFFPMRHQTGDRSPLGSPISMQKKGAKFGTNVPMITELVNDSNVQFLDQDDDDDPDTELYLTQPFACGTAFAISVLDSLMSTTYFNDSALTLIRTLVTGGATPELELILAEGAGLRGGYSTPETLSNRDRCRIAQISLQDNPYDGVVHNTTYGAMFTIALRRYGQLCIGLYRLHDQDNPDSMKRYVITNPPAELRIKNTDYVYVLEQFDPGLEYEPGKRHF
Description: In Vitro Assay 1: C. elegans Slo-1a—Action at a Recombinant C. elegans Cell Line
Generation of a Stable Caenorhabditis elegans CHO Cell Line
A CHO cell line was obtained from ATCC, code ATCC CRL-9096. For transfection with plasmid DNA to express C. elegans Slo-1a (accession number AAL28102)CHO cells were passaged to 40% confluence before adding the transfection solution to the cell culture. The transfection solution included 300 μL OptiMEM (Life Technologies, Nr.: 31985), 2 μL (=6 μg) of plasmid DNA containing the C. elegans Slo 1a gene and 9 μL FugeneHD (Promega, Nr.: E2311), and was added to the cells prior to incubation for 48 hours at 37° C., 5% CO2. The transfection medium was exchanged for the selection medium which contains additional G418 (2 mg/ml, Invitrogen, Nr.: 10131) and the cells were seeded into 384 well plates (300 cells/well). […]
After starting the measurement of fluorescence using a FLIPR Tetra (Molecular Devices, Exc. 510-545 nm, Emm. 565-625 n), test compounds were added followed by the addition of KCl tyrode (final assay concentration: 70 mM KCl, 2 mM CaCl2, 1 mM MgCl2, 0.8 mM NaH2PO4, 5 mM Glucose, 28 mM Hepes, pH 7.4, including the voltage sensitive dye). […]
The data were evaluated by using the ActivityBase XLfit software (IDBS) for curve fitting and calculation of the half-maximal effective concentration (EC50) and are reported as negative decadic logarithm (pE50).

Sequence of D. immitis Slo-1 (I0DFK5 1-1119): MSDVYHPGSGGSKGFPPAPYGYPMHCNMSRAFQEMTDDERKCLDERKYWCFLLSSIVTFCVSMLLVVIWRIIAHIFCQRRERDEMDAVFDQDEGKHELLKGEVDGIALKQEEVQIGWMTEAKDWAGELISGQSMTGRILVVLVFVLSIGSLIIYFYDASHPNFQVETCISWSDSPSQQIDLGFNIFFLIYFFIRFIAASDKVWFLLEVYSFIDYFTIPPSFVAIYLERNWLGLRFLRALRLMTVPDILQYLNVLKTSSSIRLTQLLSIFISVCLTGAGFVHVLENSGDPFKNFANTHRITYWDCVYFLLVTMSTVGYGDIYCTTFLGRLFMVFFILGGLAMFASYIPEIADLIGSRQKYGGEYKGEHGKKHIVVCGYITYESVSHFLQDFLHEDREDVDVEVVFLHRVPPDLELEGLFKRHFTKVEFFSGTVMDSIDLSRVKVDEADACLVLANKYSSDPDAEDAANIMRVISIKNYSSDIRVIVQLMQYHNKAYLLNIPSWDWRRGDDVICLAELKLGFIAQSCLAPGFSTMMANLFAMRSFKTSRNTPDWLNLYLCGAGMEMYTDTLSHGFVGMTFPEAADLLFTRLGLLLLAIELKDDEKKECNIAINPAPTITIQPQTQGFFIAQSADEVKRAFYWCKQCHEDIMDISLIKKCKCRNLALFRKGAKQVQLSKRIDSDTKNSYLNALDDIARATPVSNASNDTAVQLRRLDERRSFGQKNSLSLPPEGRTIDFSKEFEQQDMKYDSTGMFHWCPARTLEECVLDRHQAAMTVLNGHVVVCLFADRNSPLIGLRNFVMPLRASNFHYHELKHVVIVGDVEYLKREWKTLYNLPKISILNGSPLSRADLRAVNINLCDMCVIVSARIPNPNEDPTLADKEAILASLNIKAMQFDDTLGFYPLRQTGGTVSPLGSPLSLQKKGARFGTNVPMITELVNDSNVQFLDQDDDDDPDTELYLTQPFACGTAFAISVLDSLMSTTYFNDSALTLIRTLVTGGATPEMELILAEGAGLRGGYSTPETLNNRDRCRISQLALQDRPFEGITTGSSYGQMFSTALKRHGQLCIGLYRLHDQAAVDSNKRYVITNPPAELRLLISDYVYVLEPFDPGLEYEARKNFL

SMILES | inhibition at 10 µg/mL [1] [%] | EC50 [2] [µg/mL] | EC50 [3] [µg/mL] | EC50 [4] [nM] | EC50 [5] [nM]
CC(C)c1c(C(=O)N[C@H]2CCOc3ccccc32)ncc2c(-c3cc(Cl)cc(Cl)c3)cccc12 [Example I-4] | > 80 | < 0.1 | < 0.1 | 31.6 to 316 | 
Cc1c(C(=O)N[C@H]2CCOc3ccccc32)ncc2c(-c3cc(F)cc(F)c3F)cccc12 [Example I-2, N-[(4S)-3,4-dihydro-2H-chromen-4-yl]-4-methyl-8-(2,3,5-trifluorophenyl)isoquinoline-3-carboxamide] | > 80 | < 0.1 | < 0.1 | 316 to 5010 | 
O=C(N[C@H]1CCCc2ccccc21)c1ncc2c(-c3cc(F)cc(F)c3F)cccc2c1N1CCOCC1 [Example I-9] | > 80 | < 0.1 | < 0.1 | 31.6 to 316 | 
O=C(N[C@H]1CCOc2ccccc21)c1ncc2c(-c3cc(F)cc(F)c3F)cccc2c1N1CCOCC1 [Example I-1, N-[(4S)-3,4-dihydro-2H-chromen-4-yl]-4-(morpholin-4-yl)-8-(2,3,5-trifluorophenyl)isoquinoline-3-carboxamide] | > 80 | < 0.1 | < 0.1 | 3.16 to 31.6 | 
Cc1c(C(=O)N[C@H]2CCc3ccccc32)ncc2c(-c3cc(F)cc(F)c3F)cccc12 [Example I-7] | > 80 | < 1 | < 0.1 | 316 to 5010 | 
CC(C)c1c(C(=O)N[C@H]2CCOc3ccccc32)ncc2c(-c3cc(F)cc(F)c3F)cccc12 [Example I-3, N-[(4S)-3,4-dihydro-2H-chromen-4-yl]-4-isopropyl-8-(2,3,5-trifluorophenyl)isoquinoline-3-carboxamide] | > 80 | < 0.1 | < 0.1 | 31.6 to 316 | 
O=C(N[C@H]1CCCc2ccccc21)c1ncc2c(-c3cc(Cl)cc(Cl)c3)cccc2c1N1CCOCC1 [Example I-8] | > 80 | < 0.1 | < 0.1 | 316 to 5010 | 3.16 to 31.6
Cc1c(C(=O)N[C@H]2CCOc3ccccc32)ncc2c(Br)cccc12 [IC-2, 8-Bromo-N-[(4S)-3,4-dihydro-2H-chromen-4-yl]-4-methylisoquinoline-3-carboxamide] |  |  | < 10 |  | 
CC(C)(C)c1cc(Cl)cc(-c2cccc3c(N4CCOCC4)c(C(=O)N[C@H]4CCOc5ccccc54)ncc23)c1 [Example I-12] | > 80 | < 0.1 | < 0.1 | 316 to 5010 | 
O=C(NC1CCSc2ccc(F)cc21)c1ncc2c(-c3cc(F)cc(F)c3F)cccc2c1N1CCOCC1 (centres unmarked) [Example I-15] |  | < 0.1 | < 1 | 316 to 5010 | 
O=C(N[C@H]1CCOc2ccccc21)c1cnc2c(Br)cccc2c1N1CCOCC1 [IC-1, 8-Bromo-N-[(4S)-3,4-dihydro-2H-chromen-4-yl]-4-(morpholin-4-yl)quinoline-3-carboxamide] |  |  | < 10 |  | 
CC(C)c1c(C(=O)N[C@H]2CCOc3ccccc32)ncc2c(Br)cccc12 [IC-3, 8-Bromo-N-[(4S)-3,4-dihydro-2H-chromen-4-yl]-4-isopropylisoquinoline-3-carboxamide] |  |  | < 10 |  | 
Cc1c(C(=O)N[C@H]2CCOc3ccccc32)ncc2c(-c3cc(Cl)cc(Cl)c3)cccc12 [Example I-13] | > 80 | < 1 | < 0.1 |  | 31.6 to 316
O=C(N[C@H]1CCOc2ccccc21)c1ncc2c(-c3cc(Cl)cc(Cl)c3)cccc2c1N1CCOCC1 [Example I-11] | > 80 | < 0.1 | < 0.1 | 316 to 5010 | 
